# Test system: influenza virus genome replication and transcription in yeast cells
# Format: cell-based
smiles,measurement,value
C[C@@H]1C[C@@H]([C@H](O)CC2CC(=O)NC(=O)C2)C(=O)[C@@H](C)C1 [cycloheximide],synthesis level of viral RNAs,markedly reduced

# Source: patent US20100304375A1, “Influenza Virus Genome Replication and Transcription System in Yeast Cells” (UNIVERSITY OF TSUKUBA, priority 2007, published 2010)
